Measurements taken from patent publication US6693112B2, “Compounds for enhancing chemotherapy” (The Pennsylvania State University, priority 2000, dated 2004).
Like-named read-outs stand apart in the source and are kept apart here.

What was measured:
[1] = test system: MCF-7 cells; experiment: Cytotoxicity toward drug-sensitive MCF-7 cells (sulforhodamine B binding assay); type: cell-based, human; conditions: for Toxicity: percent of MCF-7 cells killed by 10 μ/ml of the compound
[2] = target: T1, MRP (Homo sapiens, UniProt P33527); experiment: Reversal of MRP-mediated MDR: enhancement of vincristine cytotoxicity toward MCF-7/VP cells; type: cell-based; conditions: % survival with compound alone / with compound + 1 nM vincristine; for MRP1 antagonism score: >1.0 = chemosensitization
T1 construct: MCF-7/VP cells, a cell line that expresses MRP; endogenous in cells; host or cells: MCF-7/VP cells
T1 sequence (P33527 whole entry): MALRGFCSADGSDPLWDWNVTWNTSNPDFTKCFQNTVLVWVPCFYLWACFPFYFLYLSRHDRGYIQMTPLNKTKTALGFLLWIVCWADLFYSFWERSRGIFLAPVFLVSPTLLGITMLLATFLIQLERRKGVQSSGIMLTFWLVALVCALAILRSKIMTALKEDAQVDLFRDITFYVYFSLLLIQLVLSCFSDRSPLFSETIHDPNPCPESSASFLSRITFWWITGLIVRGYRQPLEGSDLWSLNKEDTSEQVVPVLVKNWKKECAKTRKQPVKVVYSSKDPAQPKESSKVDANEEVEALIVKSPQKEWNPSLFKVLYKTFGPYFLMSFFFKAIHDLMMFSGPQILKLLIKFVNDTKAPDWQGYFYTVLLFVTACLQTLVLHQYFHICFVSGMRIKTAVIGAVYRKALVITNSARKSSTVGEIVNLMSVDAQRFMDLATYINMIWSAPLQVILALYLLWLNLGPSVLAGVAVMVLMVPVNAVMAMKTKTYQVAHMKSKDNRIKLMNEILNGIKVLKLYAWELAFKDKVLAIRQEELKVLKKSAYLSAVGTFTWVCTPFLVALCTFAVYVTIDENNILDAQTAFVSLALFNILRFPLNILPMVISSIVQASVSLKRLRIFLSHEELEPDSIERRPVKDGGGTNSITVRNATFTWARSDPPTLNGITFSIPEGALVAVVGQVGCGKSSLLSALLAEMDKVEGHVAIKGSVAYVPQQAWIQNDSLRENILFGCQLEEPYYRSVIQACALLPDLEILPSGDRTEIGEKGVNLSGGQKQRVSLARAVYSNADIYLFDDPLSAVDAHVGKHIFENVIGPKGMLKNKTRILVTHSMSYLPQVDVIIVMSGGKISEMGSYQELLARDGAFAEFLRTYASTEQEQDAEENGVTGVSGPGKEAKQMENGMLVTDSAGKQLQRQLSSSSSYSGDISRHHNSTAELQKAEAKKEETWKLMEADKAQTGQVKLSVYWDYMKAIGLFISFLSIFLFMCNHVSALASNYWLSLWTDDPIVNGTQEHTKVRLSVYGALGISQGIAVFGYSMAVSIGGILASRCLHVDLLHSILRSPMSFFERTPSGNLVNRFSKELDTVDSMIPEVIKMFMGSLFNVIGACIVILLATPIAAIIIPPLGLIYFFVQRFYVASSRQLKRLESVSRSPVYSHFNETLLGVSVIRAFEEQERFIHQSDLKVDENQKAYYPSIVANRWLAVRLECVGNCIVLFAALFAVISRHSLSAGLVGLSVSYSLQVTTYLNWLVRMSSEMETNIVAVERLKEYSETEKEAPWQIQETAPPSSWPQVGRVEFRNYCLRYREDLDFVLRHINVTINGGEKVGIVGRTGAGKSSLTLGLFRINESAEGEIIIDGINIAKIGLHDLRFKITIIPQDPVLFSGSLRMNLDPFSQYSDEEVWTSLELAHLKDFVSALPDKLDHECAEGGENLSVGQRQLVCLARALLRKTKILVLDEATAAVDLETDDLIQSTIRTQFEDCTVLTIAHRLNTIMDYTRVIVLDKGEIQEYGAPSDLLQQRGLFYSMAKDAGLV
Procedure: Reversal of MRP-mediated MDR was examined by plating MCF-7/VP cells as described above and exposing the cells to varying concentrations of phenoxymethylquinoxalinone compounds in the absence or presence of 1 nM vincristine for 48 hours. Cell survival was assayed as described above. The percentage of cells that died following treatment was calculated as described above. Inhibition of MRP was manifested as the ability of the compound to enhance the cytotoxicity of vincristine toward MCF-7/VP cells.
Chemosensitization is indicated by a score greater than 1.0.
Chemosensitization is indicated by a score greater than 1.0. […]

[3] = target: P-gp (Homo sapiens, UniProt P08183); conditions: for P-gp antagonism score / Pgp Antagonism: % survival with compound alone / with compound + 50 nM vinblastine; for P-gp antagonism score: >1.0 = chemosensitization; for p-GP/MRP1: ratio of P-gp and MRP1 antagonism scores
Chain of P-gp (P08183 whole entry): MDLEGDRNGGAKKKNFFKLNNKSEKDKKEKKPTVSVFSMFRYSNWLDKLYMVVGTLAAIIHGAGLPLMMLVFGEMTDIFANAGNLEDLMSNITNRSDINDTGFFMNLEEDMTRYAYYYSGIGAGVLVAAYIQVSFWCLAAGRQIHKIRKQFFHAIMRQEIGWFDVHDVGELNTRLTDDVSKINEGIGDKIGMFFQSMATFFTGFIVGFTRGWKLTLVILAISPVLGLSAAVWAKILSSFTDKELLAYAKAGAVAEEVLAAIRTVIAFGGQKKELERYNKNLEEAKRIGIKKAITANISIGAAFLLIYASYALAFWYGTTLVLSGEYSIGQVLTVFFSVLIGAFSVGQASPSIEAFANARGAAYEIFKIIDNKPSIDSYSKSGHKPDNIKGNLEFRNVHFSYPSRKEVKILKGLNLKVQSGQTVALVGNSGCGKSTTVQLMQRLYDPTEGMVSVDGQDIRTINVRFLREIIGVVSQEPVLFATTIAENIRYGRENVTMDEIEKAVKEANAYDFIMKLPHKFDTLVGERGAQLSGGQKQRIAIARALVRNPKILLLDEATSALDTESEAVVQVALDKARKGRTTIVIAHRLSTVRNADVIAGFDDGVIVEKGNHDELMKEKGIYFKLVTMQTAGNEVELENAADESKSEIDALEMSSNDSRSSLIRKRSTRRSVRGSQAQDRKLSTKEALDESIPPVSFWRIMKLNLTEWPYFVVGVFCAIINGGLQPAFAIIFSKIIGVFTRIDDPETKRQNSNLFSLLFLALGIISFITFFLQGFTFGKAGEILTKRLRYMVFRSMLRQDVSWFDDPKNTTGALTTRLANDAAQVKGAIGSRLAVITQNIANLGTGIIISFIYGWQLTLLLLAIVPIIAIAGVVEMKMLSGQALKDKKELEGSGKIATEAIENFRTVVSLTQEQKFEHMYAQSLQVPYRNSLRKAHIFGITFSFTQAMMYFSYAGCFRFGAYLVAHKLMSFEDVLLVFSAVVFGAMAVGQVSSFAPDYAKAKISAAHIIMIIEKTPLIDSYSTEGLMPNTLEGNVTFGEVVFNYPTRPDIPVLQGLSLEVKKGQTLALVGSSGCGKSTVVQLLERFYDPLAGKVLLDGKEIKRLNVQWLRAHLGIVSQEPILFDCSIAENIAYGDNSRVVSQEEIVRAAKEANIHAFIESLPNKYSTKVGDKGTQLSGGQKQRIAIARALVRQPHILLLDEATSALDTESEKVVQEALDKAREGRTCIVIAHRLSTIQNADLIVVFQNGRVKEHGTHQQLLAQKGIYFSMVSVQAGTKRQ
Procedure: The percentage of cells that died following treatment was calculated as a percent decrease in sulforhodamine B binding as compared with control cultures. […] Inhibition of P-gp was manifested as the ability of the compound to enhance the cytotoxicity of vinblastine toward NCI/ADR cells. To assess the toxicity of the compounds toward drug-sensitive cells, the effects of the compounds on the growth of drug-sensitive MCF-7 cells were determined using the same methods.
The P-gp antagonism score was calculated by dividing the percent survival of NCI/ADR cells treated with the compound alone by the percent survival of NCI/ADR cells treated with the compound in the presence of 50 nM vinblastine. Chemosensitization is indicated by a score of more than 1.0.
The P-gp antagonism score was calculated by dividing the percent survival of NCI/ADR cells treated with […] by the percent survival of NCI/ADR cells treated with the compound in the presence of 50 nM vinblastine.

[4] = MCF-7 cells, 48 hours, concentration required to kill 50% of the cells, * = maximum dose tested (low solubility)
[5] = MCF-7 cells, concentration required to kill 50% of the cells
[6] = concentration of compound at the maximum antagonism

## CCOC(=O)c1ccc(OCc2nc3ccccc3n(C)c2=O)cc1 [Compound 13, 4-(4-Methyl-3-oxo-3,4-dihydro-quinoxalin-2-ylmethoxy)-benzoyl ethyl ester]
[1]; [4]
  IC50: > 74 µM
[2]
  MRP1 antagonism score: 0.9
[3]; NCI/ADR cells
  P-gp antagonism score: 3.8
[3]
  p-GP/MRP1: 4.2

## Cn1c(=O)c(COc2ccccc2Cc2ccccc2)nc2ccccc21 [Compound 15]
[1]; [4]
  IC50: 8.1 µM
[2]
  MRP1 antagonism score: 1.1
[3]; NCI/ADR cells
  P-gp antagonism score: 1.0
[3]
  p-GP/MRP1: 0.9

## Cn1c(=O)c(COc2ccccc2C(=O)Nc2ccccc2)nc2ccccc21 [Compound 11, 2-(4-Methyl-3-oxo-3,4-dihydroquinoxalin-2-yl-methoxy)-N-phenylbenzamide]
[1]; Homo sapiens, MCF7, 48 h
  IC50: > 32 µM
[2]
  MRP1 antagonism score: 1.0

## Cn1c(=O)c(COc2ccccc2)nc2ccccc21 [Compound 1, 1-Methyl-3-phenoxymethyl-1H-quinoxalin-2-one]
[1]; Homo sapiens, MCF7, 48 h
  IC50: > 94 µM
[2]
  MRP1 antagonism score: 1.0

## Cn1c(=O)c(COc2cccc(Nc3ccccc3)c2)nc2ccccc21 [Compound 14]
[1]; [4]
  IC50: 25 µM
[2]
  MRP1 antagonism score: 0.9
[3]; NCI/ADR cells
  P-gp antagonism score: 1.3
[3]
  p-GP/MRP1: 1.5

## CC(C)(C)NCC(=O)Nc1c2c(nc3ccccc13)N(Cc1ccccc1)CC2 [Compound 60]
[1]
  Toxicity: 29%

## CN1CCc2c1nc1ccccc1c2N=C(c1ccccc1)N1CCCCC1 [Compound 47]
[1]
  Toxicity: 58%
[2]
  MRP Antagonism: 1.0
[3]; NCI/ADR cells
  Pgp Antagonism: 2.4

## CCC(=O)Nc1c2c(nc3ccccc13)N(C)CC2 [Compound 37]
[2]
  MRP Antagonism: 1.0
[3]; NCI/ADR cells
  Pgp Antagonism: 1.6

## COc1cc(OC)cc(OCc2nc3ccccc3n(C)c2=O)c1 [Compound 21]
[1]; [4]
  IC50: 25 µM
[2]
  MRP1 antagonism score: 0.9

## Nc1c2c(nc3ccccc13)N(C1CCCCC1)CC2 [Compound 49]
[1]
  Toxicity: 97%
[2]
  MRP Antagonism: 0.6
[3]; NCI/ADR cells
  Pgp Antagonism: 0.8

## Fc1cccc(CNc2c3c(nc4ccccc24)N(Cc2ccccc2)CC3)c1 [Compound 4003]
[1]; [5]
  Toxicity IC50: >25 µg/mL
[3]; [6]
  Maximum Antagonism (conc. μg/ml): 25 µg/mL

## O=C(Nc1c2c(nc3ccccc13)N(Cc1ccccc1)CC2)c1c(F)cccc1C(F)(F)F [Compound 4009]
[1]; [5]
  Toxicity IC50: 6 µg/mL
[3]; [6]
  Maximum Antagonism (conc. μg/ml): 3.1 µg/mL

## Cn1c(=O)c(COc2ccc(-c3ccccc3)cc2)nc2ccccc21 [Compound 17]
[1]; [4]
  IC50: 30 µM
[2]
  MRP1 antagonism score: 0.7

## COc1ccc(OCc2nc3ccccc3n(C)c2=O)cc1OC [Compound 22]
[1]; [4]
  IC50: 28 µM
[2]
  MRP1 antagonism score: 0.9

## Cn1c(=O)c(COc2ccc(F)cc2)nc2ccccc21 [Compound 2]
[1]; [4]
  IC50: 26 µM
[2]
  MRP1 antagonism score: 0.8

## O=C(CN1CCCCC1)Nc1c2c(nc3ccccc13)N(Cc1ccccc1)CC2 [Compound 4007]
[1]; [5]
  Toxicity IC50: 6 µg/mL
[3]; FIG. 7, NCI/ADR cells, 50 nM vinblastine
  potency of P-gp antagonism compared with verapamil: somewhat more potent than verapamil
[3]; [6]
  Maximum Antagonism (conc. μg/ml): 3.1 µg/mL

## COc1cc(CNc2c3c(nc4ccccc24)N(Cc2ccccc2)CC3)cc(OC)c1 [Compound 4005]
[1]; [5]
  Toxicity IC50: 20 µg/mL
[3]; [6]
  Maximum Antagonism (conc. μg/ml): 25 µg/mL

## Cn1c(=O)c(COc2ccc(C#N)cc2)nc2ccccc21 [Compound 3, 3-(4-Cyano-phenoxymethyl)-1-methyl-1H-quinoxalin-2-one]
[1]; Homo sapiens, MCF7, 48 h
  IC50: > 43 µM
[2]
  MRP1 antagonism score: 0.8

## Nc1c2c(nc3ccccc13)N(Cc1ccccc1)CC2 [Compound 4001]
[1]; [5]
  Toxicity IC50: 1.7 µg/mL
[3]
  Antagonism at IC20 or less, P-gp: 1.0
  Maximum Antagonism: 4.0 (3.1)
  Maximum Antagonism (conc. μg/ml): 4.0 (3.1) μg/ml

## O=C(Nc1c2c(nc3ccccc13)N(Cc1ccccc1)CC2)c1ccc(F)c(C(F)(F)F)c1 [Compound 4010]
[1]; [5]
  Toxicity IC50: 9 µg/mL
[3]; [6]
  Maximum Antagonism (conc. μg/ml): 3.1 µg/mL

## CN1CCc2c1nc1ccccc1c2NC(=O)Cc1ccccc1 [Compound 38]
[2]
  MRP Antagonism: 1.0

## Cn1c(=O)c(COc2ccc(C(=O)c3ccccc3)cc2)nc2ccccc21 [Compound 8, 3-(4-Benzoyl-phenoxymethyl)-1-methyl-1H-quinoxalin-2-one]
[1]; Homo sapiens, MCF7, 48 h
  IC50: > 67 µM
[2]
  MRP1 antagonism score: 0.9
